Assay: xn = mol fraction of the nth substance listed

CCCCC[N+](CC)(CC)CC.O=S(=O)([N-]S(=O)(=O)C(F)(F)F)C(F)(F)F + CCCCC[P+](CC)(CC)CC.O=S(=O)([N-]S(=O)(=O)C(F)(F)F)C(F)(F)F
viscosity [mPa·s], 101.3 kPa
Conditions	298.15 K	303.15 K	308.15 K	313.15 K	318.15 K
x1 = 0.2	96.6	75.4	59.8	–	–
x1 = 0.4	–	83.6	65.8	52.7	–
x1 = 0.6	–	94.3	73.6	58.4	–
x1 = 0.8	–	–	83.8	–	52.8

Nc1cccc2ccccc12 + CCO
viscosity [mPa·s], 101 kPa
Conditions	x1 = 0.0225	x1 = 0.04399	x1 = 0.08427	x1 = 0.1213	x1 = 0.1554	x1 = 0.187	x1 = 0.2163
293.15 K	1.348	1.454	1.7	1.987	2.308	2.667	3.025
303.15 K	1.094	1.176	1.362	1.56	1.786	2.029	2.27
313.15 K	0.903	0.966	1.104	1.251	1.41	1.587	1.759
323.15 K	0.745	0.791	0.899	1.006	1.121	1.254	1.377

CCOCCOCCOCCO + ClC=C(Cl)Cl
298.15 K, 101.33 kPa
Conditions	viscosity [mPa·s]
x1 = 0.0053	0.54
x1 = 0.0167	0.565
x1 = 0.026	0.587
x1 = 0.0395	0.618
x1 = 0.0528	0.651
x1 = 0.0728	0.707
x1 = 0.1054	0.809
x1 = 0.1458	0.947
x1 = 0.1858	1.103
x1 = 0.2345	1.326
x1 = 0.2866	1.587
x1 = 0.3318	1.832
x1 = 0.3679	2.048
x1 = 0.4108	2.323
x1 = 0.447	2.559
x1 = 0.4818	2.796
x1 = 0.523	3.087
x1 = 0.5639	3.396
x1 = 0.6278	3.88
x1 = 0.6904	4.378
x1 = 0.7278	4.683
x1 = 0.7721	5.051
x1 = 0.8271	5.521
x1 = 0.8733	5.952
x1 = 0.9136	6.273
x1 = 0.9317	6.46
x1 = 0.9672	6.773
x2 = 0.0194	6.891

C[C@H]1CCCC[C@H]1O + C[C@@H]1CCCC[C@H]1O
viscosity [mPa·s], 101 kPa
Conditions	x1 = 0.199	x1 = 0.302	x1 = 0.399	x1 = 0.598	x1 = 0.691	x1 = 0.798
298.15 K	29.88	27.1	24.51	20.97	19.75	18.87
303.15 K	20.72	19.03	17.37	15.25	14.51	13.97

CCCCn1cc[n+](C)c1.[Cl-] + CN(C)C=O
101 kPa
Conditions	viscosity [mPa·s]
293.15 K, x2 = 0.5025	76.7
293.15 K, x2 = 0.9	3.41
298.15 K, x2 = 0.501	64.4
303.15 K, x2 = 0.7005	9.55
308.15 K, x1 = 0.1056	1.665
308.15 K, x1 = 0.1399	2.135
308.15 K, x2 = 0.7	7.76

CCC(=O)OC + ClC(Cl)C(Cl)Cl
viscosity [mPa·s], 101.3 kPa
Conditions	308.15 K	318.15 K
x1 = 0.0501	1.352	1.214
x1 = 0.1021	1.296	1.149
x1 = 0.2031	1.186	1.032
x1 = 0.302	1.078	0.927
x1 = 0.3398	1.037	0.889
x1 = 0.5038	0.865	0.741
x1 = 0.6012	0.769	0.664
x1 = 0.6946	0.681	0.597
x1 = 0.7988	0.591	0.528
x1 = 0.9016	0.509	0.468
x1 = 0.9481	0.474	0.443

N#Cc1ccccc1 + COC(C)(C)C
viscosity [mPa·s], 101.33 kPa
Conditions	x2 = 0.1048	x2 = 0.2024	x2 = 0.3015	x2 = 0.3969	x2 = 0.4912	x2 = 0.6055	x2 = 0.7115	x2 = 0.7995	x2 = 0.905
293.15 K	1.277	1.18	1.081	0.9863	0.8924	0.7787	0.6732	0.5856	0.4806
298.15 K	1.185	1.096	1.006	0.9189	0.8329	0.7286	0.6319	0.5516	0.4554

N#Cc1ccccc1 + CC(C)(C)O
viscosity [mPa·s], 101.33 kPa
Conditions	x1 = 0.0567	x1 = 0.1542	x1 = 0.2837	x1 = 0.3997	x1 = 0.4923	x1 = 0.5993	x1 = 0.7289	x1 = 0.8283	x1 = 0.8923
303.15 K	2.895	2.017	1.578	1.365	1.262	1.203	1.142	1.121	1.114
308.15 K	2.311	1.696	1.368	1.223	1.137	1.094	1.043	1.034	1.028
313.15 K	1.811	1.429	1.187	1.072	1.021	1.001	0.98	0.962	0.951

N[C@@H](CCC(=O)O)C(=O)O + O
viscosity [mPa·s], 101.3 kPa
Conditions	x1 = 0.000207	x1 = 0.00038	x1 = 0.00043	x1 = 0.000542	x1 = 0.000801	x1 = 0.000855	x1 = 0.0012
293.15 K	1.004	1.012	1.007	1.011	1.021	1.019	1.027
298.15 K	0.8955	0.9049	0.8994	0.9025	0.9086	0.9109	0.9194
303.15 K	0.8079	0.8164	0.8109	0.8148	0.8178	0.8217	0.8279
313.15 K	0.6741	0.6803	0.6764	0.6779	0.6818	0.6849	0.6903
323.15 K	0.5787	0.5857	0.581	0.5826	0.5849	0.5864	0.5895

CCOCCOCCOCCO + ClC(Cl)=C(Cl)Cl
298.15 K, 101.33 kPa
Conditions	viscosity [mPa·s]
x1 = 0.0072	0.863
x1 = 0.0185	0.892
x1 = 0.0339	0.931
x1 = 0.0489	0.969
x1 = 0.0609	1.008
x1 = 0.0867	1.081
x1 = 0.1081	1.154
x1 = 0.1487	1.29
x1 = 0.1926	1.459
x1 = 0.2354	1.634
x1 = 0.2903	1.893
x1 = 0.3204	2.052
x1 = 0.3495	2.207
x1 = 0.3887	2.429
x1 = 0.4239	2.631
x1 = 0.4633	2.863
x1 = 0.5019	3.105
x1 = 0.5442	3.384
x1 = 0.5861	3.665
x1 = 0.6345	4.013
x1 = 0.6893	4.413
x1 = 0.7441	4.852
x1 = 0.8008	5.303
x1 = 0.8471	5.684
x1 = 0.9061	6.191
x1 = 0.9387	6.486
x1 = 0.9502	6.589
x1 = 0.9795	6.871

— the CheMixHub viscosity set
